Results taken from PMC10662218 (RSC Advances, 2023).

Target: Human insulin (monomeric insulin) (Homo sapiens, UniProt P01308)
Experiment: intrinsic Tyr fluorescence quenching
Type: binding
Conditions: insulin 25 μM, compound 2-24 μM, double-log

Human insulin (monomeric insulin), sequence (P01308 25-54): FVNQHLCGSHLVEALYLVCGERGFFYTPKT
Human insulin (monomeric insulin), sequence (P01308 90-110): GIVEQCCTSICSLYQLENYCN

| K b, 10^4 (M^-1) / 293 K | Compound |
| --- | --- |
| 17.09 × 10^4 M^-1 | COc1cccc(/C=N/C(CO)(CO)CO)c1O [3b, (E)-2-((2-hydroxy-3-methoxybenzylidene)amino)-2-(hydroxymethyl)propane-1,3-diol] |
| 2.18 × 10^4 M^-1 | COc1cccc(/C=N/C(C)(C)C)c1O [3a, (E)-2-((tert-butylimino)methyl)-6-methoxyphenol] |
